Source: patent US5384309A, “Cyclized peptides and their use as platelet aggregation inhibitors” (Genentech, Inc., priority 1989, dated 1995)
Where two headings read alike, the source gives them in different places. Positions of bridges follow the written chain, without caps; N, C: chain ends. Non-standard residues stand in square brackets, D forms with d. Residues, ends and D or L forms follow the SMILES beside them. No end group written: not given here.

Legend:
[1] = biological target: T1, purified human platelet GP llbllla receptor (Homo sapiens, UniProt P05106+P08514); assay: biochemical; format: binding; details: for IC50: ELISA, fibrinogen-coated plates, solubilized GP llbllla, read-out: IC50, inhibition of fibrinogen binding to the GP llbllla platelet receptor
T1 construct: Platelet GP llbllla was prepared by the method of Fitzgerald, et al; from tissue; host or cells: human platelets
Method: In-vitro biological activity of the compounds of Formula I was monitored using a modified fibrinogen--GP llbllla ELISA based on the method of Nachman and Leung (J. Clin. Invest. (1982) 69, 263-269) which measures the inhibition of fibrinogen binding to purified human platelet GP llbllla receptor. Human fibrinogen was prepared by the method of Lipinska, et al. (J. Lab. Grin. Med. (1974) 84, 509-516). Platelet GP llbllla was prepared by the method of Fitzgerald, et al. (Anal. Blochem. (1985) 151,169-177.
Microtiter plates are coated with fibrinogen (10 ug/ml) and then blocked with TACTS buffer containing 0.5% bovine serum albumin (BSA). (TACTS buffer contains 20 mM Tris. HCl, pH 7.5, 0.02% sodium azide, 2 mM calcium chloride, 0.05% Tween 20, 150 mM sodium chloride.) The plate is washed with phosphate buffered saline (PBS) containing 0.01% Tween 20 and the sample to be determined added, followed by addition of solubilized GP llbllla receptor (40 ug/ml) in TACTS, 0.5% BSA. After incubation, the plate is washed and 1 ug/ml of murine anti-platelet monoclonal antibody AP3 (P. J. Newman et al. Blood (1985) 65, 227-232) is added. After another wash a goat anti-mouse IgG conjugated to horseradish peroxidase is added. A final wash is performed and developing reagent buffer (10 mg o-phenylenediamine dihydrochloride, 0.0212% hydrogen peroxide, 0.22 mM citrate, 50 mM phosphate, pH 5.0) is added and then incubated until color develops. The reaction is stopped with 1N sulfuric acid and the absorbance at 492 nm is recorded.
Microtiter plates are coated with fibrinogen (10 ug/ml) and then blocked with TACTS buffer containing 0.5% BSA. (TACTS buffer contains 20mM Tris. HCl, pH 7.5, 0.02% sodium azide, 2 mM calcium chloride, 0.05% Tween 20, 150 mM sodium chloride.) The plate is washed with phosphate buffered saline containing 0.01% Tween 20 and a dilution of the sample to be determined added, followed by addition of solubilized llbllla receptor (40 ug/ml) in TACTS, 0.5% BSA. After incubation, the plate is washed and murine monoclonal anti-platelet antibody AP3 (1 ug/ml) added. After another wash goat and anti-mouse IgG conjugated to horseradish peroxidase is added. A final wash is performed and developing reagent buffer (10 mg o-phenylenediamine dihydrochloride, 0.0212% hydrogen peroxide, 0.22 mM citrate, 50 mM phosphate, pH 5.0) is added and then incubated until color developed. The reaction is stopped with 1N sulfuric acid and the absorbance at 492 nm is recorded.

[2] = biological target: human platelet rich plasma (PRP) platelets (Homo sapiens, UniProt P05106+P08514); assay: platelet aggregation inhibition in human platelet rich plasma (ADP induced); format: cell-based; details: ADP 8 uM
Method: In addition to the GP llbllla ELISA assay, platelet aggregation assays may be performed in human platelet rich plasma (PRP). Fifty milliliters of whole human blood (9 parts) is drawn on 3.6% sodium citrate (1 part) from a donor who has not taken aspirin or related medications for at least two weeks. The blood is centrifuged at 160 ×g for 10 min at […] and then allowed to stand for 5 min after which the PRP is decanted. Platelet poor plasma (PPP) is isolated from the remaining blood after centrifugation at 2000×g for 25 min. The platelet count of the PRP was diluted to ca. 300000 per microliter with PPP.
A 225 uL aliquot of PRP plus 25 uL of either a dilution of the test sample or a control (PBS) is incubated for 5 min in a Chrono-log Whole Blood Aggregometer at 25° C. An aggregatng agent (collagen, 1 ug/ml; U46619, 100 ng/ml; or ADP, 8 uM) is added and the platelet aggregation recorded.
Fifty milliliters of whole human blood (9 parts) is drawn on 3.6% sodium citrate (1 part) from a donor who has not taken aspirin or related medications for at least two weeks. The blood is centrifuged at 160×g for 10 min at 22° C. and then allowed to stand for 5 min after which the PRP is decanted. Platelet poor plasma (PPP) is isolated from the remaining blood after centrifugation at 2000×g for 25 min. The platelet count of the PRP was diluted to ca. 300000 per microliter with PPP.
A 225 uL aliquot of PRP plus 25 uL of either a dilution of the test sample or a control (PBS) is incubated for 5 min in a Chrono-log Whole Blood Aggregometer at 25° C. Adenosine diphosphate (ADP, 8 uM) is added and the platelet aggregation recorded.

[3] = GP IIbIIIa receptor assay for inhibition of fibrinogen binding, smaller ratio = more active

T1 sequence (P08514 32-887 limits assumed): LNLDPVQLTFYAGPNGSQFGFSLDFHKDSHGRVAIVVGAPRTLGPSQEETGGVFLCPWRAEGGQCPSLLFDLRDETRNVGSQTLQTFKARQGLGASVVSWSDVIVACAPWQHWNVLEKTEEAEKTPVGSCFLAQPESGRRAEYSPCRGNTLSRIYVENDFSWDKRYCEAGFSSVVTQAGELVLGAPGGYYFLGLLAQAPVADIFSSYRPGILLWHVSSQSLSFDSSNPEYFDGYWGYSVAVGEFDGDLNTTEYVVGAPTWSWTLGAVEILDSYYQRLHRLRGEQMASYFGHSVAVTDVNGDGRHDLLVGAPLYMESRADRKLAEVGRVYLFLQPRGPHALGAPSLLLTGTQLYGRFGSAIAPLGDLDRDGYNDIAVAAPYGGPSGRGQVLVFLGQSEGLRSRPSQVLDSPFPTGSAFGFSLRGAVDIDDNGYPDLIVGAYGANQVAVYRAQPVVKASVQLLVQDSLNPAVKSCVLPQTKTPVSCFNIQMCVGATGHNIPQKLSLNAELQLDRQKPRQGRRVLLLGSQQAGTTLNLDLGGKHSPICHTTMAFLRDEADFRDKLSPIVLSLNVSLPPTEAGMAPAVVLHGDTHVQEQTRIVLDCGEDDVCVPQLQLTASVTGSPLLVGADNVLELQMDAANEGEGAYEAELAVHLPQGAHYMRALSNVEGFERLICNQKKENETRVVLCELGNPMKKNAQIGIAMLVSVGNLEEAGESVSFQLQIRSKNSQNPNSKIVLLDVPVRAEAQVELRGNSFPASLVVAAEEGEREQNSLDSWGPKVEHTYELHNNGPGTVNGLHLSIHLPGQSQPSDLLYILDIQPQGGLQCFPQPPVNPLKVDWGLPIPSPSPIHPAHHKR
T1 sequence (P08514 891-1039 partner limits assumed): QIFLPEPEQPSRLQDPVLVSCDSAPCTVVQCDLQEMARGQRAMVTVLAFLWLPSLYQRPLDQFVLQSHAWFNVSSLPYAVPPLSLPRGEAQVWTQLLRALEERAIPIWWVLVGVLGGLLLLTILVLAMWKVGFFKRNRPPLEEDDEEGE
T1 sequence (P05106 27-788): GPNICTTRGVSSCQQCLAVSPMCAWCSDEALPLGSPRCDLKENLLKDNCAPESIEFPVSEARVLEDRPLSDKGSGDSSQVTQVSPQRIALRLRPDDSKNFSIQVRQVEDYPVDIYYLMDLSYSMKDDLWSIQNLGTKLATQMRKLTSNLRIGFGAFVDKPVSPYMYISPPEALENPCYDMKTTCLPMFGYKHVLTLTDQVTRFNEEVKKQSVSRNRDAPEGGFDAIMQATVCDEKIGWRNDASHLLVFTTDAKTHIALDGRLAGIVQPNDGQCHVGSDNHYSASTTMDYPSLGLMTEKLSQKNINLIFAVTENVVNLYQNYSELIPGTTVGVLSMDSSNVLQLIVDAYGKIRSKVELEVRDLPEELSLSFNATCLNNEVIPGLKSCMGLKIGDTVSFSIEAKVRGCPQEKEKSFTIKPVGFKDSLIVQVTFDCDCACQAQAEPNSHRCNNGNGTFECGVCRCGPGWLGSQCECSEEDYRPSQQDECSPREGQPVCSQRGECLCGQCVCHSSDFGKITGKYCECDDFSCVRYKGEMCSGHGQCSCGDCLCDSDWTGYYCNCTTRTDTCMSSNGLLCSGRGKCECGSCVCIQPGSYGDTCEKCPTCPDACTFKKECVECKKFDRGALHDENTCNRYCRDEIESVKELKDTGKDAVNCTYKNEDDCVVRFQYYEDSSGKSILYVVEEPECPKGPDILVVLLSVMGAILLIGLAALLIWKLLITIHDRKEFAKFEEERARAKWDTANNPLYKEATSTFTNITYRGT
Chain of human platelet rich plasma (PRP) platelets (P08514 32-1039): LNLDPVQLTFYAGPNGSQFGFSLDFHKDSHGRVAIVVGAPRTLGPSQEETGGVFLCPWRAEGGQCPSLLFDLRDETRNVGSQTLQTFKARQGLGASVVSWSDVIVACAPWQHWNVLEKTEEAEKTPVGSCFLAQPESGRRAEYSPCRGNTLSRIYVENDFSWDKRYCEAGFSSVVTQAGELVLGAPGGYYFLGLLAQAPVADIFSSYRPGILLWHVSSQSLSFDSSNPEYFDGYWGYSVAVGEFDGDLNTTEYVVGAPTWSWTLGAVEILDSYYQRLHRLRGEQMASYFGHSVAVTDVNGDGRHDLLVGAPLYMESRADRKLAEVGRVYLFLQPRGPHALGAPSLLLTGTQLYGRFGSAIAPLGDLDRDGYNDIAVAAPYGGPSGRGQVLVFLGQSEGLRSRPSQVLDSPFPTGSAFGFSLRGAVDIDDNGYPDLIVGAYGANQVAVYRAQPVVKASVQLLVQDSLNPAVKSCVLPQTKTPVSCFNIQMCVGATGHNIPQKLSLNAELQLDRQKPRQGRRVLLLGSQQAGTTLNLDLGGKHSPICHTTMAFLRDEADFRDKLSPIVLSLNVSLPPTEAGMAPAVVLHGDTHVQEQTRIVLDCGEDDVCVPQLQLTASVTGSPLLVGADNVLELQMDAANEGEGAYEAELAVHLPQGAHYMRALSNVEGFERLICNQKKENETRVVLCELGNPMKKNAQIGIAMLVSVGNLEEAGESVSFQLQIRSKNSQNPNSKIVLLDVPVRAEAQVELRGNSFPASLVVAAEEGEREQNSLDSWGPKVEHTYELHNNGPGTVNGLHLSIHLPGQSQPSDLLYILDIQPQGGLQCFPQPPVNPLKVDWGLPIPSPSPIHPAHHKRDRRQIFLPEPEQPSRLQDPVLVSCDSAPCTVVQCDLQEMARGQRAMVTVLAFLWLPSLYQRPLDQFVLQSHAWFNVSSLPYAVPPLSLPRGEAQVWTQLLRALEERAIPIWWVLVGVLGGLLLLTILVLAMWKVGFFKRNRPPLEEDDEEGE
Chain of human platelet rich plasma (PRP) platelets (P05106 27-788): as the sequence (P05106 27-788) above

| Compound | Ratio of IC50 of test compound to IC50 of Gly-Arg-Gly-Asp-Val [1] | IC50 [2] | Ratio of IC50 of test compound to IC50 of Gly-Arg-Gly-Asp-Val [1, 3] | other results |
| --- | --- | --- | --- | --- |
| N=C(N)NCCC[C@H](N)C(=O)NCC(=O)N[C@@H](CC(=O)O)C(=O)N[C@@H](CO)C(=O)O [Arg--Gly--Asp--Ser, reference compound] | > 20 | – | – | – |
| CC(C)[C@H](NC(=O)[C@H](CC(=O)O)NC(=O)CNC(=O)[C@@H](N)CCCNC(=N)N)C(=O)O [Arg--Gly--Asp--Val, reference compound] (H-RGDV-OH) | 3 | – | – | – |
| N=C(N)NCCC[C@@H]1NC(=O)CNC(=O)CSC[C@@H](C(=O)O)NC(=O)[C@H](CC(=O)O)NC(=O)CNC1=O [Ex. 2, cyclo-S-acetyl-Gly-Arg-Gly-Asp-Cys-OH] ({CH2CO}-GRGDC-OH; thioether N-5) | – | 8000 nM | 0.14 | – |
| N=C(N)NCCC[C@@H]1NC(=O)[C@@H](CC(N)=O)NC(=O)CSC[C@@H](C(=O)O)NC(=O)[C@H](CC(=O)O)NC(=O)CNC1=O [Ex. 5, cyclo-S-acetyl-(dAsn)-Arg--Gly--Asp--Cys--OH] ({CH2CO}-[dN]RGDC-OH; thioether N-5) | 0.14 | – | – | – |
| C[C@@H](O)[C@@H]1NC(=O)CSC[C@@H](C(=O)O)NC(=O)[C@H](CC(=O)O)NC(=O)CNC(=O)[C@H](CCCNC(=N)N)NC1=O [Ex. 6, cyclo-S-acetyl-Thr--Arg--Gly--Asp--Cys--OH] ({CH2CO}-TRGDC-OH; thioether N-5) | 0.46 | – | – | – |
| C[C@H](O)[C@H]1NC(=O)CSC[C@@H](C(=O)O)NC(=O)[C@H](CC(=O)O)NC(=O)CNC(=O)[C@H](CCCNC(=N)N)NC1=O [Ex. 7, Cyclo-S-acetyl-(d-Thr)-Arg-Gly-Asp-Cys-OH] ({CH2CO}-[dT]RGDC-OH; thioether N-5) | – | – | 0.07 | – |
| C[C@H](O)[C@H]1NC(=O)CSC[C@@H](C(=O)O)NC(=O)[C@H](CC(=O)O)NC(=O)CNC(=O)[C@H](CCCN=C(N)N)NC1=O [Ex. 7, Cyclo-S-acetyl-(d-Thr)-Arg-Gly-Asp-Cys-OH] ({CH2CO}-[dT]RGDC-OH; thioether N-5) | – | 800 nM | – | – |
| C[C@@H]1NC(=O)CSC[C@@H](C(=O)O)NC(=O)[C@H](CC(=O)O)NC(=O)CNC(=O)[C@H](CCCNC(=N)N)NC1=O [Ex. 8, cyclo-S-acetyl-Ala--Arg--Gly--Asp--Cys--OH] ({CH2CO}-ARGDC-OH; thioether N-5) | 0.5 | – | – | – |
| C[C@H]1NC(=O)CSC[C@@H](C(=O)O)NC(=O)[C@H](CC(=O)O)NC(=O)CNC(=O)[C@H](CCCNC(=N)N)NC1=O [Ex. 9, cyclo-S-acetyl-(dAla)-Arg--Gly--Asp--Cys--OH] ({CH2CO}-[dA]RGDC-OH; thioether N-5) | – | 3000 nM | 0.13 | – |
| N=C(N)NCCC[C@@H]1NC(=O)[C@H](Cc2ccc(O)cc2)NC(=O)CSC[C@@H](C(=O)O)NC(=O)[C@H](CC(=O)O)NC(=O)CNC1=O [Ex. 10, cyclo-S-acetyl-Tyr--Arg--Gly--Asp--Cys--OH] ({CH2CO}-YRGDC-OH; thioether N-5) | 0.38 | – | – | – |
| N=C(N)NCCC[C@@H]1NC(=O)[C@@H]2CCCN2C(=O)CSC[C@@H](C(=O)O)NC(=O)[C@H](CC(=O)O)NC(=O)CNC1=O [Ex. 12, cyclo-S-acetyl-Pro--Arg--Gly--Asp--Cys--OH] ({CH2CO}-PRGDC-OH; thioether N-5) | 0.46 | – | – | – |
| N=C(N)NCCC[C@@H]1NC(=O)[C@H]2CCCN2C(=O)CSC[C@@H](C(=O)O)NC(=O)[C@H](CC(=O)O)NC(=O)CNC1=O [Ex. 13, cyclo-S-acetyl-(dPro)-Arg--Gly--Asp--Cys--OH] ({CH2CO}-[dP]RGDC-OH; thioether N-5) | – | 2000 nM | 0.05 | – |
| N=C(N)NCCC[C@@H]1NC(=O)CNC(=O)C(c2ccccc2)SC[C@@H](C(=O)O)NC(=O)[C@H](CC(=O)O)NC(=O)CNC1=O (some centres unmarked) [Ex. 18, cyclo-S-Phenylacetyl-Gly--Arg--Gly--Asp--Cys--OH] | – | 3000 nM | – | – |
| N=C(N)NCCC[C@@H]1NC(=O)CNC(=O)CSC[C@@H](C(=O)O)NC(=O)[C@H](CC(=O)O)NC(=O)CNC1=O [cyclo-S-acetyl-Gly-Arg-Gly-Asp-Cys-OH] ({CH2CO}-GRGDC-OH; thioether N-5) | – | 8500 nM | – | IC50 [1]: 5 nM |
| GRGDV [Gly--Arg--Gly--Asp--Val, reference compound] [listing 1 of 2 here] | – | – | – | IC50 [1]: 20 to 40 nM |
| GRGDV [Gly--Arg--Gly--Asp--Val, reference compound] [listing 2 of 2 here] | – | – | 1 | – |
